The text below walks through data of US20250195513A1, “DEGRADATION OF IRAK4 BY CONJUGATION OF IRAK4 INHIBITORS WITH E3 LIGASE LIGAND AND METHODS OF USE” (BeiGene, Ltd., priority 2022, published 2025).

The target in this assay is T1, IRAK4 (Homo sapiens, UniProt Q9NWZ3).
T1 construct: endogenous in cells; host or cells: Karpas299
T1 sequence (Q9NWZ3 1-460): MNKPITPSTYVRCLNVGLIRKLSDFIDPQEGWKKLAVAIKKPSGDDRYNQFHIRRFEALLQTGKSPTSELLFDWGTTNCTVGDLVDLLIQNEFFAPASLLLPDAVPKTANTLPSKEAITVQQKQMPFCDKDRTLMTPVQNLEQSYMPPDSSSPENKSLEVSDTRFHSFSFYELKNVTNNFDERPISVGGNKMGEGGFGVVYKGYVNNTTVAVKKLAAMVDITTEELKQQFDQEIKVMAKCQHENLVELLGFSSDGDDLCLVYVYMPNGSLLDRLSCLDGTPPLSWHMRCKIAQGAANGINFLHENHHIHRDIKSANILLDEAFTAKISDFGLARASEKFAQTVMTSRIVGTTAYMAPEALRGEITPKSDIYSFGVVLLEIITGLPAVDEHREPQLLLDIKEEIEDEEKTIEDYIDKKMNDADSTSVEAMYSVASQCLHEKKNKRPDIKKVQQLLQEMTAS
The experiment in a line: IRAK4 Degradation Assay (Karpas299, HTRF/TR-FRET). It counts as cell-based. The note with it: Karpas-299 cells, 24 h treatment; for Dmax: maximum percentage of degradation, read-out: IRAK4 in Karpas-299 (24 h) Dmax (%); for DC50: read-out: IRAK4 in Karpas-299 (24 h) DC50. In a few lines:
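Karpas299 cells at 0.2 million per well were exposed to serially diluted compounds for 24 h or 5 h, then lysed. IRAK4 remaining in lysates was quantified by HTRF (665/620 nm) after overnight antibody incubation at room temperature. Percent degradation was fitted to a four-parameter curve to give IC50 (DC50).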

For `CC(C)c1cc(-c2nc(C(=O)Nc3cn([C@H]4CC[C@H](N5CCN(C(=O)[C@@H]6CCN(c7cc(F)c([C@H]8CCC(=O)NC8=O)c(F)c7)C6)CC5)CC4)nc3C(F)F)co2)ccn1` [Example 85, N-(3-(difluoromethyl)-1-((1R,4r)-4-(4-((R)-1-(4-((R)-2,6-dioxopiperidin-3-yl)-3,5-difluorophenyl)pyrrolidine-3-carbonyl)piperazin-1-yl)cyclohexyl)-1H-pyrazol-4-yl)-2-(2-isopropylpyridin-4-yl)oxazole-4-carboxamide], the Dmax was found to be 95% and the DC50 was 5.2 nM.

In the case of `COc1cc2nn(C3CCN(C4CCN(C(=O)C5CN(c6ccc(N7CCC(=O)NC7=O)cc6)C5)CC4)CC3)cc2cc1NC(=O)c1cccc(C(F)(F)F)n1` [Example 44, N-(2-(1′-(1-(4-(2,4-dioxotetrahydropyrimidin-1(2H)-yl)phenyl)azetidine-3-carbonyl)-[1,4′-bipiperidin]-4-yl)-6-methoxy-2H-indazol-5-yl)-6-(trifluoromethyl)picolinamide], the Dmax stood at 99% and the DC50 worked out at 9.3 nM.

Consider `CC(C)(O)c1cc2nn([C@H]3CC[C@H](N4CCN(C(=O)N5CCN(c6cc(F)c([C@H]7CCC(=O)NC7=O)c(F)c6)CC5)CC4)CC3)cc2cc1NC(=O)c1ccc2cc(C#N)cnn12` [Example 225, 3-cyano-N-(2-((1r,4r)-4-(4-(4-(4-((R)-2,6-dioxopiperidin-3-yl)-3,5-difluorophenyl)piperazine-1-carbonyl)piperazin-1-yl)cyclohexyl)-6-(2-hydroxypropan-2-yl)-2H-indazol-5-yl)pyrrolo[1,2-b]pyridazine-7-carboxamide], for which the greatest degradation seen (Dmax) was found to be 97% and the DC50 was 1 nM.

On to `CC(C)(O)c1cc2nn([C@H]3CC[C@H](CN4CCN(C(=O)C5CN(c6cc(F)c([C@H]7CCC(=O)NC7=O)c(F)c6)C5)CC4)CC3)cc2cc1NC(=O)c1csc(-c2cn[nH]c2)n1` [Example 434, N-(2-((1r,4r)-4-((4-(1-(4-((R)-2,6-dioxopiperidin-3-yl)-3,5-difluorophenyl)azetidine-3-carbonyl)piperazin-1-yl)methyl)cyclohexyl)-6-(2-hydroxypropan-2-yl)-2H-indazol-5-yl)-2-(1H-pyrazol-4-yl)thiazole-4-carboxamide], for which the Dmax turned out to be 97% and the DC50 worked out at 0.2 nM.

With `CC(C)(O)c1cc2nn([C@H]3CC[C@H](N4CCN(C[C@H]5CCN(c6cc(F)c(N7CCC(=O)NC7=O)c(F)c6)C5)CC4)CC3)cc2cc1NC(=O)c1ccc2cc(C#N)cnn12` [Example 112, 3-cyano-N-(2-((1R,4r)-4-(4-(((R)-1-(4-(2,4-dioxotetrahydropyrimidin-1(2H)-yl)-3,5-difluorophenyl)pyrrolidin-3-yl)methyl)piperazin-1-yl)cyclohexyl)-6-(2-hydroxypropan-2-yl)-2H-indazol-5-yl)pyrrolo[1,2-b]pyridazine-7-carboxamide], the Dmax stood at 96% and the DC50 is 8.6 nM.
